The results in this text go back to US9650334B2 (AbbVie Deutschland GmbH & Co. KG, priority 2013, dated 2017).

The experiment concerns the target T1, human GlyT1c transporter (Homo sapiens, UniProt P48067).
T1 sequence (P48067 1-706): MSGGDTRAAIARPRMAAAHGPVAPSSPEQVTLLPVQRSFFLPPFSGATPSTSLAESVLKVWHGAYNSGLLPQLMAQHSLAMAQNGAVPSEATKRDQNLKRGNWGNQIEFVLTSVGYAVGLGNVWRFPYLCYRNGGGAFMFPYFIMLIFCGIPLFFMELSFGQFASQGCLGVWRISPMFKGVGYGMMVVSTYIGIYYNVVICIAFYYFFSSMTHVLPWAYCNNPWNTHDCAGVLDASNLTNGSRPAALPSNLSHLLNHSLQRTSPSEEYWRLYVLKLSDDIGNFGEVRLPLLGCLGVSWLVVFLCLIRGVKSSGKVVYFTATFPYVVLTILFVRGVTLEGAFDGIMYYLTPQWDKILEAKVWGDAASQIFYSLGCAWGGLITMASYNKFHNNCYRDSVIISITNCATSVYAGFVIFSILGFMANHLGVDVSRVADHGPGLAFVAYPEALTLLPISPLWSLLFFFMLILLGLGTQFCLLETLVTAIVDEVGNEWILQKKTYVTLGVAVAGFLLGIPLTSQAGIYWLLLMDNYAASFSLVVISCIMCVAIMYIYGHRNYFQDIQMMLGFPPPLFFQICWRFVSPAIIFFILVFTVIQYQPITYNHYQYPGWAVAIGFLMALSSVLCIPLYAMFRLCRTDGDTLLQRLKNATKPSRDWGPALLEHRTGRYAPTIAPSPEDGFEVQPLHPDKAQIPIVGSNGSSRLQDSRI
Description: Radioligand binding assays using recombinant CHO cell membranes expressing human GlyT1. The note with it: radioligand binding to human GlyT1c transporter-expressing CHO cell membranes.

Bounds are passed on as bounds.

The term Ki denotes the equilibrium dissociation constant of an inhibitor or competing ligand from its target. With `CN1CCCCC1C1CN(S(=O)(=O)c2cn(C)cn2)CC1Nc1cccc(OCC(F)(F)F)c1` (centres unmarked) [Example 894, 1-[(1-methyl-1H-imidazol-4-yl)sulfonyl]-4-(1-methylpiperidin-2-yl)-N-[3-(2,2,2-trifluoroethoxy)phenyl]pyrrolidin-3-amine], for the setting “Ki”, the Ki is at most 10 nM.
With `Cn1cnc(S(=O)(=O)N2C[C@H](Nc3cccc(Cl)c3)[C@@H](C3OCCCO3)C2)c1` [Example 914, (3R,4S)-N-(3-chlorophenyl)-4-(1,3-dioxan-2-yl)-1-[(1-methyl-1H-imidazol-4-yl)sulfonyl]pyrrolidin-3-amine], the Ki (Ki) is at most 10 nM.
On the same count and under the same terms, to `Cn1cnc(S(=O)(=O)N2CC3CCCCC3(NC(=O)c3cccc(C(F)(F)F)c3Cl)C2)c1` (centres unmarked) [Example 870, 2-chloro-N-{2-[(1-methyl-1H-imidazol-4-yl)sulfonyl]octahydro-3aH-isoindol-3a-yl}-3-(trifluoromethyl)benzamide] belongs at most 100 nM; to `Cn1cnc(S(=O)(=O)N2C[C@@H](Nc3ccc(F)c(F)c3)[C@H](c3ncccc3F)C2)c1` (relative stereo) [Example 766, Trans-N-(3,4-difluorophenyl)-4-(3-fluoropyridin-2-yl)-1-[(1-methyl-1H-imidazol-4-yl)sulfonyl]pyrrolidin-3-amine], at most 1000 nM; to `Cn1cnc(S(=O)(=O)N2CC(C(=O)NCc3ccc(F)c(Cl)c3)C3(CCCCC3)C2)c1` (centres unmarked) [Example 881, N-(3-chloro-4-fluorobenzyl)-2-[(1-methyl-1H-imidazol-4-yl)sulfonyl]-2-azaspiro[4.5]decane-4-carboxamide], at most 1000 nM.
Still for that read-out and setting: the figure for `Cn1cnc(S(=O)(=O)N2C[C@H](Nc3cccc(OC(F)(F)F)c3)[C@@H](C3OCCO3)C2)c1` [Example 902, (3R,4S)-4-(1,3-dioxolan-2-yl)-1-[(1-methyl-1H-imidazol-4-yl)sulfonyl]-N-[3-(trifluoromethoxy)phenyl]pyrrolidin-3-amine] is at most 1000 nM; for `Cn1cnc(S(=O)(=O)N2CC3CCCCC3(NCc3ccc(C(F)(F)F)cc3Cl)C2)c1` (centres unmarked) [Example 869, N-[2-chloro-4-(trifluoromethyl)benzyl]-2-[(1-methyl-1H-imidazol-4-yl)sulfonyl]octahydro-3aH-isoindol-3a-amine] it is at most 10 nM.
As for `CCCCCCN[C@H]1CN(S(=O)(=O)c2cn(C)cn2)C[C@@H]1C1OCCCO1` [Example 910, (3R,4S)-4-(1,3-dioxan-2-yl)-N-hexyl-1-[(1-methyl-1H-imidazol-4-yl)sulfonyl]pyrrolidin-3-amine], the Ki (Ki) was at most 100 nM.
Same read-out and setting: the figure for `Cn1cnc(S(=O)(=O)N2C[C@H](Nc3cccc(OC(F)(F)F)c3)[C@@H](C3OCC(C)(C)CO3)C2)c1` [Example 900, (3R,4S)-4-(5,5-dimethyl-1,3-dioxan-2-yl)-1-[(1-methyl-1H-imidazol-4-yl)sulfonyl]-N-[3-(trifluoromethoxy)phenyl]pyrrolidin-3-amine] is at most 1000 nM; for `Cn1cnc(S(=O)(=O)N2C[C@H](Nc3ccc(F)c(Cl)c3)[C@@H](C3OCCCO3)C2)c1` [Example 916, (3R,4S)-N-(3-chloro-4-fluorophenyl)-4-(1,3-dioxan-2-yl)-1-[(1-methyl-1H-imidazol-4-yl)sulfonyl]pyrrolidin-3-amine] it is at most 100 nM.
With `Cn1cnc(S(=O)(=O)N2C[C@H](Nc3cccc(OCC(F)F)c3)[C@@H](C3OCCCO3)C2)c1` [Example 928, (3R,4S)-N-[3-(2,2-difluoroethoxy)phenyl]-4-(1,3-dioxan-2-yl)-1-[(1-methyl-1H-imidazol-4-yl)sulfonyl]pyrrolidin-3-amine], the Ki (Ki) was at most 10 nM.
The same measure, in the same setting: to `Cn1cnc(S(=O)(=O)N2CC(Nc3cccc(OC(F)(F)F)c3)C(N3CCCCC3)C2)c1` (centres unmarked) [Example 913, 1-[(1-methyl-1H-imidazol-4-yl)sulfonyl]-4-(piperidin-1-yl)-N-[3-(trifluoromethoxy)phenyl]pyrrolidin-3-amine] belongs at most 10 nM.
Take “6-butoxy-N-{(3R,4S)-4-(4-fluorophenyl)-1-[(1-methyl-1H-imidazol-4-yl)sulfonyl]pyrrolidin-3-yl}pyrimidin-4-amine [Example 717]”: the Ki is at most 100 nM.
For `CN1CCCCC1C1CN(S(=O)(=O)c2cn(C)cn2)CC1NC1CCc2ccccc21` (centres unmarked) [Example 893, N-(2,3-dihydro-1H-inden-1-yl)-1-[(1-methyl-1H-imidazol-4-yl)sulfonyl]-4-(1-methylpiperidin-2-yl)pyrrolidin-3-amine], the Ki (Ki) is at most 100 nM.
Still for that read-out and setting: to `Cc1ccc(C(N[C@H]2CN(S(=O)(=O)c3cn(C)cn3)C[C@@H]2c2ccc(F)cc2)C(F)(F)F)cc1` (stereo partly drawn) [Example 876, (3R,4S)-4-(4-fluorophenyl)-1-[(1-methyl-1H-imidazol-4-yl)sulfonyl]-N-[2,2,2-trifluoro-1-(4-methylphenyl)ethyl]pyrrolidin-3-amine] belongs at most 1000 nM.
Still for that read-out and setting: to `Cn1cnc(S(=O)(=O)N2CC3CCCCC3(NC(=O)c3ccc(Cl)cc3Cl)C2)c1` (centres unmarked) [Example 871, 2,4-dichloro-N-{2-[(1-methyl-1H-imidazol-4-yl)sulfonyl]octahydro-3aH-isoindol-3a-yl}benzamide] belongs at most 100 nM; to `Cc1cccc(C(N[C@H]2CN(S(=O)(=O)c3cn(C)cn3)C[C@@H]2c2ccc(F)cc2)C(F)(F)F)c1` (stereo partly drawn) [Example 875, (3R,4S)-4-(4-fluorophenyl)-1-[(1-methyl-1H-imidazol-4-yl)sulfonyl]-N-[2,2,2-trifluoro-1-(3-methylphenyl)ethyl]pyrrolidin-3-amine], at most 10000 nM; to `Cn1cnc(S(=O)(=O)N2C3CCC2C(c2ccc(F)cc2)C3Nc2ccc(F)c(C(F)(F)F)c2)c1` (centres unmarked) [Example 878, 3-(4-fluorophenyl)-N-[4-fluoro-3-(trifluoromethyl)phenyl]-7-[(1-methyl-1H-imidazol-4-yl)sulfonyl]-7-azabicyclo[2.2.1]heptan-2-amine], at most 10000 nM.
For “N-{(3R,4S)-4-(4-fluorophenyl)-1-[(1-methyl-1H-imidazol-4-yl)sulfonyl]pyrrolidin-3-yl}-6-(2-methylpropoxy)pyrimidin-4-amine [Example 718]”, the Ki was at most 100 nM.
As for `Cn1cnc(S(=O)(=O)N2CC(Nc3ccc(F)c(C(F)(F)F)c3)C(c3ccc(F)cn3)C2)c1` (centres unmarked) [Example 927, 4-(5-fluoropyridin-2-yl)-N-[4-fluoro-3-(trifluoromethyl)phenyl]-1-[(1-methyl-1H-imidazol-4-yl)sulfonyl]pyrrolidin-3-amine], where the note is “Ki”, the inhibition constant Ki was at most 10 nM.
On the same count and under the same terms, to `Cn1cnc(S(=O)(=O)N2C[C@@H](C(=O)c3cccc(F)c3)[C@H](c3ccc(F)cc3)C2)c1` (relative stereo) [Example 301] belongs at most 1000 nM.
The same measure, in the same setting: to `Cn1cnc(S(=O)(=O)N2CC3c4ccccc4CCC3(Oc3cc(C(F)(F)F)ncn3)C2)c1` (centres unmarked) [Example 888, 2-[(1-methyl-1H-imidazol-4-yl)sulfonyl]-3a-{[6-(trifluoromethyl)pyrimidin-4-yl]oxy}-2,3,3a,4,5,9b-hexahydro-1H-benzo[e]isoindole] belongs at most 1000 nM; to `Cn1cnc(S(=O)(=O)N2C[C@H](NC(c3ccccc3)C(F)(F)F)[C@@H](c3ccc(F)cc3)C2)c1` (stereo partly drawn) [Example 868, (3R,4S)-4-(4-fluorophenyl)-1-[(1-methyl-1H-imidazol-4-yl)sulfonyl]-N-(2,2,2-trifluoro-1-phenylethyl)pyrrolidin-3-amine], at most 10000 nM; to `Cn1cnc(S(=O)(=O)N2CC3c4ccccc4CCC3(NCc3ccc(F)cc3)C2)c1` (centres unmarked) [Example 889, N-(4-fluorobenzyl)-2-[(1-methyl-1H-imidazol-4-yl)sulfonyl]-1,2,3,4,5,9b-hexahydro-3aH-benzo[e]isoindol-3a-amine], at most 100 nM.
On the same count and under the same terms, the figure for `Cn1cnc(S(=O)(=O)N2CC3CCCN(C(=O)c4ccc(C(F)(F)F)cc4Cl)C3C2)c1` (centres unmarked) [Example 880, [2-chloro-4-(trifluoromethyl)phenyl]{6-[(1-methyl-1H-imidazol-4-yl)sulfonyl]octahydro-1H-pyrrolo[3,4-b]pyridin-1-yl}methanone] is at most 1000 nM.
With “Trans-N-[4-chloro-3-(trifluoromethoxy)phenyl]-1-[(1-methyl-1H-imidazol-4-yl)sulfonyl]-4-[(3S)-tetrahydro-2H-pyran-3-yl]pyrrolidin-3-amine [Example 793]”, the Ki was at most 10000 nM.
For the compound `Cn1cnc(S(=O)(=O)N2CC(Nc3cccc(OC(F)(F)F)c3)C(C3CCCN(C4CC4)C3)C2)c1` (centres unmarked) [Example 641, 4-[-1-cyclopropylpiperidin-3-yl]-1-[(1-methyl-1H-imidazol-4-yl)sulfonyl]-N-[3-(trifluoromethoxy)phenyl]pyrrolidin-3-amine], the Ki (Ki) is at most 100 nM.
Still for that read-out and setting: the figure for `CC(C)c1cccc(N[C@H]2CN(S(=O)(=O)c3cn(C)cn3)C[C@@H]2C2OCCCO2)c1` [Example 926, (3R,4S)-4-(1,3-dioxan-2-yl)-1-[(1-methyl-1H-imidazol-4-yl)sulfonyl]-N-[3-(propan-2-yl)phenyl]pyrrolidin-3-amine] is at most 10 nM.
“6-(cyclohexyloxy)-N-{(3R,4S)-4-(4-fluorophenyl)-1-[(1-methyl-1H-imidazol-4-yl)sulfonyl]pyrrolidin-3-yl}pyrimidin-4-amine [Example 721]”: the inhibition constant Ki is at most 100 nM.
